According to ChEMBL document CHEMBL1145881, “Pyridone-containing farnesyltransferase inhibitors: synthesis and biological evaluation” (Bioorg Med Chem Lett, 2003):

Legend:
[1] = molecular target: T1, Protein farnesyltransferase (Homo sapiens, UniProt P49354+P49356); assay: In vitro effective concentration against farnesyltransferase (FT); type: protein-complex assay
[2] = molecular target: T1, Protein farnesyltransferase; assay: In vitro inhibitory activity against farnesyltransferase (FT); type: protein-complex assay
[3] = molecular target: T2, Geranylgeranyl transferase type I (Homo sapiens, UniProt P49354+P53609); assay: In vitro inhibitory activity against Geranylgeranyl transferase type I; type: protein-complex assay
[4] = molecular target: T1, Protein farnesyltransferase; assay: In vitro effective concentration against farnesyltransferase (FT); NA= Not active; type: protein-complex assay
[5] = molecular target: T1, Protein farnesyltransferase
[6] = molecular target: T1, Protein farnesyltransferase; assay: In vitro inhibition of farnesyltransferase (FT) at 100 nM; type: protein-complex assay
[7] = molecular target: T2, Geranylgeranyl transferase type I; assay: In vitro inhibition of Geranylgeranyl transferase type I; NA means Not active; type: protein-complex assay

| SMILES | EC50 [1] [nM] | IC50 [2] [nM] | IC50 [3] [nM] | EC50 [4] | EC50 [5] [nM] | inhibition [6] [%] | IC50 [7] |
| --- | --- | --- | --- | --- | --- | --- | --- |
| Cn1cncc1C(OCc1c(-c2cc(F)cc(F)c2)cc(C#N)c(=O)n1C)c1ccc(C#N)cc1 (stereo not drawn) | 7.3 | 0.84 | 12000 | – | – | – | – |
| Cn1cncc1C(OCc1c(-c2cccc(Cl)c2)cc(C#N)c(=O)n1C)c1ccc(C#N)c(I)c1 (stereo not drawn) | 88 | 0.75 | > 1000 | – | – | – | – |
| Cn1cncc1C(OCc1c(-c2cccc(Cl)c2Cl)cc(C#N)c(=O)n1C)c1ccc(C#N)cc1 (stereo not drawn) | – | 6.1 | 2500 | Not Active | – | – | – |
| Cn1cncc1C(OCc1c(-c2cccc(Cl)c2)cc(C#N)c(=O)n1C)c1ccc(C#N)c(Br)c1 (stereo not drawn) | 39 | 1.3 | 610 | – | – | – | – |
| Cn1cncc1C(OCc1c(-c2cccc(OC(F)(F)F)c2)cc(C#N)c(=O)n1C)c1ccc(C#N)cc1 (stereo not drawn) | 3.9 | 0.42 | 1050 | – | – | – | – |
| Cn1cncc1C(OCc1c(-c2cc(Cl)cc(Cl)c2)cc(C#N)c(=O)n1C)c1ccc(C#N)c(I)c1 (stereo not drawn) | > 100 | 0.81 | 7500 | – | – | – | – |
| Cn1cncc1C(OCc1c(-c2cc(Cl)ccc2Cl)cc(C#N)c(=O)n1C)c1ccc(C#N)cc1 (stereo not drawn) | – | 1.6 | 2900 | – | 1.2 | – | – |
| Cc1ncc(C(OCc2c(-c3cccc(Cl)c3)cc(C#N)c(=O)n2C)c2ccc(C#N)cc2)n1C (stereo not drawn) | – | 5.3 | > 900 | – | – | 75 | – |
| Cn1cncc1C(OCc1c(-c2ccc(F)c(Cl)c2)cc(C#N)c(=O)n1C)c1ccc(C#N)cc1 (stereo not drawn) | 15 | 1.1 | 1900 | – | – | – | – |
| Cn1cncc1C(OCc1c(-c2cccc(Cl)c2)cc(C#N)c(=O)n1C)c1ccc(C#N)c(-c2cccc(Cl)c2)c1 (stereo not drawn) | 21 | 1 | 94 | – | – | – | – |
| Cn1cncc1C(OCc1c(-c2cc(Cl)cc(Cl)c2)cc(C#N)c(=O)n1C)c1ccc(C#N)c(Cl)c1 (stereo not drawn) | 16 | 0.77 | 190 | – | – | – | – |
| Cn1cncc1C(OCc1c(-c2cccc(Br)c2)cc(C#N)c(=O)n1C)c1ccc(C#N)cc1 (stereo not drawn) | 2.1 | 0.51 | 3400 | – | – | – | – |
| Cn1c(COC(c2ccc(C#N)cc2)c2cncs2)c(-c2cc(Cl)cc(Cl)c2)cc(C#N)c1=O (stereo not drawn) | > 100 | 1.9 | > 10000 | – | – | – | – |
| Cn1cncc1C(OCc1c(-c2cc(Cl)cc(Cl)c2)cc(C#N)c(=O)n1C)c1ccc(C#N)cc1 (stereo not drawn) | 6.8 | 0.46 | 1700 | – | – | – | – |
| CCCn1c(COC(c2ccc(C#N)cc2)c2cncn2C)c(-c2cccc(Cl)c2)cc(C#N)c1=O (stereo not drawn) | 12 | 0.036 | 3000 | – | – | – | – |
| Cn1c(COC(c2ccc(C#N)cc2)c2cncs2)c(-c2ccc(OC(F)(F)F)cc2)cc(C#N)c1=O (stereo not drawn) | – | – | – | Not Active | – | – | – |
| Cn1cncc1C(OCc1c(-c2cccc(Cl)c2)cc(C#N)c(=O)n1CC1CC1)c1ccc(C#N)cc1 (stereo not drawn) | 4.8 | 0.5 | 2000 | – | – | – | – |
| Cn1cncc1C(OCc1c(-c2ccc(OC(F)(F)F)cc2)cc(C#N)c(=O)n1C)c1ccc(C#N)c(-c2ccccc2Cl)c1 (stereo not drawn) | > 100 | 3.9 | 110 | – | – | – | – |
| Cn1c(COC(c2ccc(C#N)cc2)c2c[nH]cn2)c(-c2cccc(Cl)c2)cc(C#N)c1=O (stereo not drawn) | – | 71 | – | Not Active | – | – | Not Active |
| Cn1cncc1C(OCc1c(-c2cc(F)cc(Cl)c2)cc(C#N)c(=O)n1C)c1ccc(C#N)cc1 (stereo not drawn) | 17 | 0.7 | 1800 | – | – | – | – |
| Cn1cncc1C(OCc1ccc(C#N)cn1)c1ccc(C#N)c(-c2cccc3ccccc23)c1 (stereo not drawn) | 5.9 | 0.73 | – | – | – | – | – |

| SMILES | EC50 [1] [nM] | IC50 [2] [nM] | IC50 [3] [nM] | EC50 [4] | EC50 [5] [nM] | inhibition [6] [%] | IC50 [7] |
| --- | --- | --- | --- | --- | --- | --- | --- |
| Cn1cncc1C(OCc1c(-c2cccc(F)c2F)cc(C#N)c(=O)n1C)c1ccc(C#N)cc1 (stereo not drawn) | – | 6.3 | 3400 | Not Active | – | – | – |
| Cn1cncc1C(OCc1c(-c2ccc3c(c2)OC(F)(F)O3)cc(C#N)c(=O)n1C)c1ccc(C#N)cc1 (stereo not drawn) | 19 | 0.69 | 6200 | – | – | – | – |
| Cn1cncc1C(OCc1c(-c2ccc(OC(F)(F)F)cc2)cc(C#N)c(=O)n1C)c1ccc(C#N)c(Br)c1 (stereo not drawn) | 10 | 0.89 | 220 | – | – | – | – |
| CCn1c(COC(c2ccc(C#N)cc2)c2cncn2C)c(-c2cccc(Cl)c2)cc(C#N)c1=O (stereo not drawn) | 2.9 | 0.73 | 3300 | – | – | – | – |
| Cn1cncc1C(OCc1c(-c2cccc(Cl)c2)cc(C#N)c(=O)n1C)c1ccc(C#N)c(Cl)c1 (stereo not drawn) | 24 | 0.97 | 890 | – | – | – | – |
| Cn1cncc1C(OCc1c(-c2cccc(F)c2)cc(C#N)c(=O)n1C)c1ccc(C#N)cc1 (stereo not drawn) | 11 | 2.1 | > 10000 | – | – | – | – |
| Cn1cncc1C(OCc1c(-c2ccc(Cl)c(Cl)c2)cc(C#N)c(=O)n1C)c1ccc(C#N)cc1 (stereo not drawn) | 86 | 0.49 | 2300 | – | – | – | – |
| Cn1cncc1C(OCc1c(-c2ccc(F)c(F)c2)cc(C#N)c(=O)n1C)c1ccc(C#N)cc1 (stereo not drawn) | 10 | 1.5 | 5500 | – | – | – | – |
| Cn1cncc1C(OCc1c(-c2cc(F)ccc2F)cc(C#N)c(=O)n1C)c1ccc(C#N)cc1 (stereo not drawn) | 110 | 2.7 | 15000 | – | – | – | – |
| CCOc1cccc(-c2cc(C#N)c(=O)n(C)c2COC(c2ccc(C#N)cc2)c2cncn2C)c1 (stereo not drawn) | 0.81 | 0.67 | 1500 | – | – | – | – |
| Cn1cncc1C(OCc1c(-c2ccc(OC(F)(F)F)cc2)cc(C#N)c(=O)n1C)c1ccc(C#N)c(Cl)c1 (stereo not drawn) | 15 | 0.36 | 150 | – | – | – | – |
| Cn1cncc1C(OCc1c(-c2cc(Cl)cc(Cl)c2)cc(C#N)c(=O)n1C)c1ccc(C#N)c(Br)c1 (stereo not drawn) | > 100 | 0.42 | 290 | – | – | – | – |
| Cn1cncc1C(OCc1c(-c2cc(Cl)cc(Cl)c2)cc(C#N)c(=O)n1C)c1ccc(C#N)c(-c2cccc(Cl)c2)c1 (stereo not drawn) | – | 2 | 120 | Not Active | – | – | – |
| Cn1cncc1C(OCc1c(-c2ccc(F)cc2F)cc(C#N)c(=O)n1C)c1ccc(C#N)cc1 (stereo not drawn) | > 100 | 5.5 | 4300 | – | – | – | – |
| Cn1cncc1C(OCc1c(-c2ccc(OC(F)(F)F)cc2)cc(C#N)c(=O)n1C)c1ccc(C#N)c(-c2ccc(Cl)cc2)c1 (stereo not drawn) | > 100 | 6.5 | 160 | – | – | – | – |
| Cn1cncc1C(OCc1c(-c2ccc3c(c2)OCO3)cc(C#N)c(=O)n1C)c1ccc(C#N)cc1 (stereo not drawn) | 2.1 | 0.42 | 3300 | – | – | – | – |
| Cn1cncc1C(OCc1[nH]c(=O)c(C#N)cc1-c1cccc(Cl)c1)c1ccc(C#N)cc1 (stereo not drawn) | > 100 | 0.85 | 820 | – | – | – | – |
| Cn1cncc1C(OCc1c(-c2cccc(Cl)c2F)cc(C#N)c(=O)n1C)c1ccc(C#N)cc1 (stereo not drawn) | 24 | 1.8 | 1500 | – | – | – | – |
| Cn1cncc1C(OCc1c(-c2ccc(OC(F)(F)F)cc2)cc(C#N)c(=O)n1C)c1ccc(C#N)cc1 (stereo not drawn) | 3.9 | 0.73 | 1400 | – | – | – | – |
| COc1cccc(-c2cc(C#N)c(=O)n(C)c2COC(c2ccc(C#N)cc2)c2cncn2C)c1 (stereo not drawn) | 4.7 | 0.41 | 3200 | – | – | – | – |
| Cn1cncc1C(OCc1c(-c2ccc(OC(F)(F)F)cc2)cc(C#N)c(=O)n1C)c1ccc(C#N)c(-c2cccc(Cl)c2)c1 (stereo not drawn) | > 100 | 1.3 | 30 | – | – | – | – |
